Where two headings read alike, the source gives them in different places.
Assay: Pharmacokinetics in mice after single IV and PO administration (LC-MS/MS)
Assay type: in vivo, male ICR mice
Settings: ICR mice
Description: • 1. Objective: This study aimed to characterize the pharmacokinetic properties of selected compounds from the examples of the present invention in male ICR mice following single intravenous (IV) injection and oral (PO) administration using LC-MS/MS methodology. • 2. Experimental Materials: Test compounds were prepared according to the examples of the present invention; male ICR mice were obtained from Shanghai Jihui Laboratory Animal Breeding Co., Ltd. (License No. SCXK(Shanghai)2022-0009). • 3. Experimental Methods: Preparation of 0.5% methylcellulose (pH = 4.91): 5 g of methylcellulose was weighed and dissolved in 1000 mL of purified water, and the pH was adjusted to 4.91 with 100 mM citric acid.
Preparation of oral formulations: The required amount of test compound was weighed and dissolved in 0.5% methylcellulose (pH = 4.91) solution to obtain a suspension or solution at 3 mg/mL.
Preparation of intravenous injection formulations: The required amount of test compound was weighed and dissolved in 0.5 mL dimethyl sulfoxide to prepare a 12 mg/mL solution. To 0.25 mL of this solution, 0.5 mL of polyethylene glycol 15-hydroxystearate (Solutol) and 4.25 mL of normal saline were added to obtain a 0.6 mg/mL solution.
Dosing: Male ICR mice were fasted overnight prior to oral (PO) administration; fasting was not required for the single intravenous (IV) injection group. Food was provided 4 hours post-dosing.
Sample Collection: Blood was collected from the jugular vein or other suitable veins, with 0.03 mL collected at each time point. Samples were placed in tubes containing dipotassium ethylenediaminetetraacetate and kept on ice prior to centrifugation. Within 1 hour of blood collection, samples were centrifuged at 6800 × g for 6 minutes at 2-8°C and stored at -80°C. Blood sampling time points for intravenous administration were 0.083, 0.25, 0.5, 1, 2, 4, 8, 24, and 32 hours post-dosing. Blood sampling time points for oral administration were 0.25, 0.5, 1, 2, 4, 8, 24, and 32 hours post-dosing.

**Q.** With `CCN(C(=O)c1cc(F)ccc1N1CCN([C@@H]2CCN([C@H](CCCN(C)CCOC)C(C)C)C2)c2ncncc21)C(C)C` [Example 3] as the compound, how does the “PO F” value (PO 30 mg/kg vs IV 3 mg/kg) read?
**A.** The value was 25.6%.

**Q.** And the AUC(0-t) (mouse, in vivo, IV 3 mg/kg, read-out: IV AUC(0-t))?
**A.** The AUC(0-t) was 429 ng·h/mL.

**Q.** And the clearance (mouse, in vivo, IV 3 mg/kg, read-out: IV CL)?
**A.** The clearance was 104 mL/min/kg.

**Q.** What about the Cmax (mouse, in vivo, IV 3 mg/kg, read-out: IV Cmax) of the same compound?
**A.** Its Cmax is 418 ng/mL.

**Q.** What about the Vd (mouse, in vivo, IV 3 mg/kg, read-out: IV Vss) of the same compound?
**A.** Its Vd is 65.1 L/kg.

**Q.** And the half-life (mouse, in vivo, IV 3 mg/kg, read-out: IV t1/2 (converted))?
**A.** Its half-life is 10.9 h.

**Q.** And the AUC(0-t) (mouse, in vivo, PO 30 mg/kg, 0.5% methylcellulose (pH = 4.91), read-out: PO AUC(0-t))?
**A.** The AUC(0-t) was 1100 ng·h/mL.

**Q.** And the Cmax (mouse, in vivo, PO 30 mg/kg, 0.5% methylcellulose (pH = 4.91), read-out: PO Cmax)?
**A.** The Cmax was 293 ng/mL.

**Q.** And the half-life (mouse, in vivo, PO 30 mg/kg, 0.5% methylcellulose (pH = 4.91), read-out: PO t1/2 (converted))?
**A.** Its half-life is 6.49 h.

Source: patent EP4775580A1, “COMPOUND, PHARMACEUTICAL COMPOSITION COMPRISING SAME, AND USE THEREOF” (Euregen Biopharma Co., Ltd., priority 2023, dated 2025)
